Measured values taken from patent US12371428B2 (Exelixis, Inc., priority 2019, dated 2025).

Experiments:
[1] = target: KDR (phospho-KDR, VEGF165-stimulated HUVEC cells) (Homo sapiens (Human), UniProt P35968); assay: KDR autophosphorylation ELISA in HUVEC cells (Example G); type: cell-based; settings: cellular activity; KDR autophosphorylation ELISA in HUVEC cells
Procedure, shortened: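 Read-out: phospho-KDR in cell lysates by DuoSet IC ELISA, normalised between VEGF-stimulated DMSO wells (100%) and unstimulated wells (0%). Human endothelial cells were starved overnight in serum-free medium, exposed to compound for 1 h, and then pulsed with 100 ng/mL VEGF165 for 5 min.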

[2] = target: Human KDR (residues 790-1356) (Homo sapiens (Human), UniProt P35968); assay: Human KDR kinase assay, HTRF KinEase (Example B-2); type: biochemical; settings: protocol of Example B-2 (other compounds)
Chain of Human KDR (residues 790-1356) (P35968 790-1356): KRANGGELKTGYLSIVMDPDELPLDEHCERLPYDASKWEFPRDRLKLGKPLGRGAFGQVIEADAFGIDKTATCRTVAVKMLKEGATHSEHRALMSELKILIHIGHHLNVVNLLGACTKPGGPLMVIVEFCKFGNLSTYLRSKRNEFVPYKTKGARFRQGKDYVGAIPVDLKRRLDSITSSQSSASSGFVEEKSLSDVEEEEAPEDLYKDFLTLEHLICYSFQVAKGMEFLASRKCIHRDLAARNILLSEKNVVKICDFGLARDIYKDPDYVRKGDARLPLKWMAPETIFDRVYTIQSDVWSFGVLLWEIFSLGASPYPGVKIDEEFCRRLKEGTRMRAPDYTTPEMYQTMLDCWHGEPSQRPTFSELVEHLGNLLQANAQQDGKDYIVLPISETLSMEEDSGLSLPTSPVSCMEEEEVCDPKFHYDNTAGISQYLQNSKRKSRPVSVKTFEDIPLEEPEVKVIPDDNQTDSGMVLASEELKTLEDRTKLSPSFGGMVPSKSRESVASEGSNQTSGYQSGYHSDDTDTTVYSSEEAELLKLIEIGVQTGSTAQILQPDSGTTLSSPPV
Procedure, shortened: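 Ten compound concentrations (3% DMSO final) were pre-plated, then KDR (790-1356) with biotinylated peptide in Mg/Mn/DTT buffer was added; ATP at Km (4.0 μM) started a 40 min room-temperature reaction. Detection used Eu-TK antibody and SA-XL665 in EDTA buffer; activity normalized to DMSO and reference inhibitor, IC50 by logistic fit.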

[3] = target: Human MER (residues 528-999) (Homo sapiens (Human), UniProt Q12866); assay: Human Mer kinase assay, HTRF KinEase (Example C-2); type: biochemical; settings: protocol of Example C-2 (other compounds)
Chain of Human MER (residues 528-999) (Q12866 528-999): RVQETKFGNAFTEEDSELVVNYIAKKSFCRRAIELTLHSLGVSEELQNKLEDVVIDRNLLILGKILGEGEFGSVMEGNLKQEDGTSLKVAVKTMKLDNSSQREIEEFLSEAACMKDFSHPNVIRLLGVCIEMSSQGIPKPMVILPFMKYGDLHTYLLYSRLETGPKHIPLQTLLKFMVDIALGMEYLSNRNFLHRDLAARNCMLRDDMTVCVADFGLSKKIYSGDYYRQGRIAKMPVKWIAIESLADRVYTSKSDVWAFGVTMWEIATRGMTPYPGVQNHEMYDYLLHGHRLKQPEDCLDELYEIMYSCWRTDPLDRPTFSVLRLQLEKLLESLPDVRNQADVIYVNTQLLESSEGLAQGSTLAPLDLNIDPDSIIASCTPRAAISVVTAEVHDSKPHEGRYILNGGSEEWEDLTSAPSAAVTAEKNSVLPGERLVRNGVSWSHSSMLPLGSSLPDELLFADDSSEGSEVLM
Procedure, shortened: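 IC50 values from 10 concentrations via 4-parameter logistic fit of […], with DMSO as 100% and 1 μM reference compound as 0% activity. Reaction: MER kinase domain 528-999, 1 ng/well, 40 μM ATP (Km), biotin peptide, 5 mM MgCl2, 1 mM DTT, 3% DMSO, room temperature 60 min; HTRF streptavidin-XL665/Eu-antibody detection.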

Chain of KDR (phospho-KDR, VEGF165-stimulated HUVEC cells) (P35968 20-1356): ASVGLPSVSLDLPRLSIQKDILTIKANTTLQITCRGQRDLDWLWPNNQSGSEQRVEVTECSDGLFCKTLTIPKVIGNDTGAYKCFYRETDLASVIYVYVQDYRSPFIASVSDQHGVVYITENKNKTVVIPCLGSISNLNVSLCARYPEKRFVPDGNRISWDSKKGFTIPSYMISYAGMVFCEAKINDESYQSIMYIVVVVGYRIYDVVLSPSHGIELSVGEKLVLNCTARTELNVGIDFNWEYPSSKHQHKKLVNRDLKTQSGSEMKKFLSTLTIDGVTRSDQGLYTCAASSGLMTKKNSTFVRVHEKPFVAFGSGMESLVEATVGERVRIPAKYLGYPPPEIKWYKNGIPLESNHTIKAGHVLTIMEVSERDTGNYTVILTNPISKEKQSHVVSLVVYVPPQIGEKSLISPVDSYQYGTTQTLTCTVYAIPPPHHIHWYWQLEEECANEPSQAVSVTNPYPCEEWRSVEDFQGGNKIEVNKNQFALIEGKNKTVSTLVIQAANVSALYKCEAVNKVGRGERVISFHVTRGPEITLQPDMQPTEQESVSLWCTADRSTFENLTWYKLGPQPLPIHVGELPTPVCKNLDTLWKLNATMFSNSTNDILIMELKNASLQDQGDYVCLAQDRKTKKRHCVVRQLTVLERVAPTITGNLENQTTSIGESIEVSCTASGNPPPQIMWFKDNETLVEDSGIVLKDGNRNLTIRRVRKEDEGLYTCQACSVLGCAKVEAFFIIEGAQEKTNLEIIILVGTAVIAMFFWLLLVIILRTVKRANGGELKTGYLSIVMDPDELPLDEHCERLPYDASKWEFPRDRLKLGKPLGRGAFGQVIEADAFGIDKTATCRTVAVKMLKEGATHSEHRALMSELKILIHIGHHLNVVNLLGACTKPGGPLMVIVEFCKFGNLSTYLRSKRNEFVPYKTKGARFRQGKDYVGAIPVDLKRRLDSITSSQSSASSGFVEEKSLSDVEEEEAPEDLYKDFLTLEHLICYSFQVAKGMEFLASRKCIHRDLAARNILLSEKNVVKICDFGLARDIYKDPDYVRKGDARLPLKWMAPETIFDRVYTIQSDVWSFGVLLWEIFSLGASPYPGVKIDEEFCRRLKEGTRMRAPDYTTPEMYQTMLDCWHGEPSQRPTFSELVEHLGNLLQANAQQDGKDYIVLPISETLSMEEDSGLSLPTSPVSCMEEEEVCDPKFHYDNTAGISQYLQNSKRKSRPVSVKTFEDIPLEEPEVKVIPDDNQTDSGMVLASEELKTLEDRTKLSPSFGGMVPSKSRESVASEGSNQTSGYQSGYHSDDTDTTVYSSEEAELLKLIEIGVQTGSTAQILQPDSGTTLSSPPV

SMILES | IC50 [1] [nM] | IC50 [2] [nM] | IC50 [3] [nM]
COCCOc1nc2c(Oc3ccc(NC(=O)c4c(COC)nc(C)c(-c5ccc(F)cc5)c4O)cc3F)ccnc2cc1OC [Compound 199, N-[3-Fluoro-4-[[7-methoxy-6-(2-methoxyethoxy)-1,5-naphthyridin-4-yl]oxy]phenyl]-5-(4-fluorophenyl)-4-hydroxy-2-(methoxymethyl)-6-methylpyridine-3-carboxamide] | < 100 | < 100 | < 100
COCCOc1nc2c(Oc3ccc(NC(=O)c4cn(C)c(C)c(-c5ccc(F)cc5C)c4=O)cc3F)ccnc2cc1OC [Compound 200, N-[3-Fluoro-4-[[7-methoxy-6-(2-methoxyethoxy)-1,5-naphthyridin-4-yl]oxy]phenyl]-5-(4-fluoro-2-methylphenyl)-1,6-dimethyl-4-oxopyridine-3-carboxamide] | < 100 | > 300 | < 100
COCCOc1nc2c(Oc3ccc(NC(=O)c4c(COC)nc(C)c(-c5ccc(F)cc5C)c4O)cc3F)ccnc2cc1OC [Compound 201, N-[3-Fluoro-4-[[7-methoxy-6-(2-methoxyethoxy)-1,5-naphthyridin-4-yl]oxy]phenyl]-5-(4-fluoro-2-methylphenyl)-4-hydroxy-2-(methoxymethyl)-6-methylpyridine-3-carboxamide] | < 100 | 100 to 300 | < 100
CCc1nc(C)c(-c2ccc(F)cc2C)c(O)c1C(=O)Nc1ccc(Oc2ccnc3cc(OC)c(OC)nc23)c(F)c1 [Compound 202, N-[4-[(6,7-Dimethoxy-1,5-naphthyridin-4-yl)oxy]-3-fluorophenyl]-2-ethyl-5-(4-fluoro-2-methylphenyl)-4-hydroxy-6-methylpyridine-3-carboxamide] | < 100 | 100 to 300 | < 100
CCc1nc(C)c(-c2ccc(F)cc2C)c(O)c1C(=O)Nc1ccc(Oc2ccnc3cc(OC)c(OC)nc23)cc1 [Compound 203, N-[4-[(6,7-Dimethoxy-1,5-naphthyridin-4-yl)oxy]phenyl]-2-ethyl-5-(4-fluoro-2-methylphenyl)-4-hydroxy-6-methylpyridine-3-carboxamide] | < 100 | < 100 | < 100
CCc1nc(C)c(-c2ccc(F)cc2C)c(O)c1C(=O)Nc1ccc(Oc2ccnc3cc(OC)cnc23)c(F)c1 [Compound 204, 2-Ethyl-N-[3-fluoro-4-[(7-methoxy-1,5-naphthyridin-4-yl)oxy]phenyl]-5-(4-fluoro-2-methylphenyl)-4-hydroxy-6-methylpyridine-3-carboxamide] | < 100 | 100 to 300 | < 100
CCc1nc(C)c(-c2ccc(F)cc2C)c(O)c1C(=O)Nc1ccc(Oc2ccnc3cc(OC)cnc23)cc1 [Compound 205, 2-Ethyl-5-(4-fluoro-2-methylphenyl)-4-hydroxy-N-[4-[(7-methoxy-1,5-naphthyridin-4-yl)oxy]phenyl]-6-methylpyridine-3-carboxamide] | < 100 | > 300 | < 100
CCc1nc(C)c(-c2ccc(F)cc2C)c(O)c1C(=O)Nc1ccc(Oc2ccnc3ccc(OC)nc23)c(F)c1 [Compound 206, 2-Ethyl-N-[3-fluoro-4-[(6-methoxy-1,5-naphthyridin-4-yl)oxy]phenyl]-5-(4-fluoro-2-methylphenyl)-4-hydroxy-6-methylpyridine-3-carboxamide] | < 100 | > 300 | < 100
COc1cnc2c(Oc3ccc(NC(=O)c4ccc(C)n(-c5ccc(F)cc5)c4=O)cc3)ccnc2c1 [Compound 216, 1-(4-Fluorophenyl)-N-[4-[(7-methoxy-1,5-naphthyridin-4-yl)oxy]phenyl]-6-methyl-2-oxopyridine-3-carboxamide] | < 100 | < 100 | < 100
COc1cnc2c(Oc3ccc(NC(=O)c4cnc(CO)c(-c5ccc(F)cc5)c4O)cc3F)ccnc2c1 [Compound 217, N-[3-Fluoro-4-[(7-methoxy-1,5-naphthyridin-4-yl)oxy]phenyl]-5-(4-fluorophenyl)-4-hydroxy-6-(hydroxymethyl)pyridine-3-carboxamide] | < 100 | 100 to 300 | < 100
COc1cnc2c(Oc3ccc(NC(=O)c4cnc(CO)c(-c5ccc(F)cc5)c4O)cc3)ccnc2c1 [Compound 218, 5-(4-Fluorophenyl)-4-hydroxy-6-(hydroxymethyl)-N-[4-[(7-methoxy-1,5-naphthyridin-4-yl)oxy]phenyl]pyridine-3-carboxamide] | < 100 | 100 to 300 | < 100
COc1cc2nccc(Oc3ccc(NC(=O)c4ccc(C)n(-c5ccc(F)cc5C)c4=O)cc3F)c2nc1OC [Compound 219, N-[4-[(6,7-Dimethoxy-1,5-naphthyridin-4-yl)oxy]-3-fluorophenyl]-1-(4-fluoro-2-methylphenyl)-6-methyl-2-oxopyridine-3-carboxamide] | < 100 | < 100 | < 100
COc1cnc2c(Oc3ccc(NC(=O)c4ccc(C)n(-c5ccc(F)cc5C)c4=O)cc3F)ccnc2c1 [Compound 220, N-[3-Fluoro-4-[(7-methoxy-1,5-naphthyridin-4-yl)oxy]phenyl]-1-(4-fluoro-2-methylphenyl)-6-methyl-2-oxopyridine-3-carboxamide] | < 100 | < 100 | < 100

Continued, values first:

IC50 [1] [nM] | IC50 [2] [nM] | IC50 [3] [nM] | SMILES
< 100 | < 100 | < 100 | COCc1nc(C)c(-c2ccc(F)cc2)c(O)c1C(=O)Nc1ccc(Oc2ccnc3cc(OC)c(OC)nc23)cc1 [Compound 190, N-[4-[(6,7-Dimethoxy-1,5-naphthyridin-4-yl)oxy]phenyl]-5-(4-fluorophenyl)-4-hydroxy-2-(methoxymethyl)-6-methylpyridine-3-carboxamide]
< 100 | < 100 | < 100 | COCc1nc(C)c(-c2ccc(F)cc2C)c(O)c1C(=O)Nc1ccc(Oc2ccnc3cc(OC)c(OC)nc23)c(F)c1 [Compound 191, N-[4-[(6,7-Dimethoxy-1,5-naphthyridin-4-yl)oxy]-3-fluorophenyl]-5-(4-fluoro-2-methylphenyl)-4-hydroxy-2-(methoxymethyl)-6-methylpyridine-3-carboxamide]
< 100 | < 100 | < 100 | COCc1nc(C)c(-c2ccc(F)cc2C)c(O)c1C(=O)Nc1ccc(Oc2ccnc3cc(OC)c(OC)nc23)cc1 [Compound 192, N-[4-[(6,7-Dimethoxy-1,5-naphthyridin-4-yl)oxy]phenyl]-5-(4-fluoro-2-methylphenyl)-4-hydroxy-2-(methoxymethyl)-6-methylpyridine-3-carboxamide]
< 100 | 100 to 300 | < 100 | COCc1nc(C)c(-c2ccc(F)cc2C)c(O)c1C(=O)Nc1ccc(Oc2ccnc3cc(OC)cnc23)c(F)c1 [Compound 193, N-[3-Fluoro-4-[(7-methoxy-1,5-naphthyridin-4-yl)oxy]phenyl]-5-(4-fluoro-2-methylphenyl)-4-hydroxy-2-(methoxymethyl)-6-methylpyridine-3-carboxamide]
< 100 | 100 to 300 | < 100 | COCc1nc(C)c(-c2ccc(F)cc2C)c(O)c1C(=O)Nc1ccc(Oc2ccnc3cc(OC)cnc23)cc1 [Compound 194, 5-(4-Fluoro-2-methylphenyl)-4-hydroxy-2-(methoxymethyl)-N-[4-[(7-methoxy-1,5-naphthyridin-4-yl)oxy]phenyl]-6-methylpyridine-3-carboxamide]
< 100 | > 300 | < 100 | COCc1nc(C)c(-c2ccc(F)cc2C)c(O)c1C(=O)Nc1ccc(Oc2ccnc3ccc(OC)nc23)c(F)c1 [Compound 195, N-[3-Fluoro-4-[(6-methoxy-1,5-naphthyridin-4-yl)oxy]phenyl]-5-(4-fluoro-2-methylphenyl)-4-hydroxy-2-(methoxymethyl)-6-methylpyridine-3-carboxamide]
< 100 | 100 to 300 | < 100 | COc1cc2nccc(Oc3ccc(NC(=O)c4cn(C)c(C)c(-c5ccc(F)cc5C)c4=O)cc3)c2nc1OC [Compound 196, N-[4-[(6,7-Dimethoxy-1,5-naphthyridin-4-yl)oxy]phenyl]-5-(4-fluoro-2-methylphenyl)-1,6-dimethyl-4-oxopyridine-3-carboxamide]
< 100 | < 100 | < 100 | CCc1nc(C)c(-c2ccc(F)cc2)c(O)c1C(=O)Nc1ccc(Oc2ccnc3cc(OC)c(OC)nc23)cc1 [Compound 197, N-[4-[(6,7-Dimethoxy-1,5-naphthyridin-4-yl)oxy]phenyl]-2-ethyl-5-(4-fluorophenyl)-4-hydroxy-6-methylpyridine-3-carboxamide]
< 100 | 100 to 300 | < 100 | COCCOc1nc2c(Oc3ccc(NC(=O)c4cn(C)c(C)c(-c5ccc(F)cc5)c4=O)cc3F)ccnc2cc1OC [Compound 198, N-[3-Fluoro-4-[[7-methoxy-6-(2-methoxyethoxy)-1,5-naphthyridin-4-yl]oxy]phenyl]-5-(4-fluorophenyl)-1,6-dimethyl-4-oxopyridine-3-carboxamide]
